Reference: patent US4479943A, “3-Demethoxyistamycin B, the 2"-N-formimidoyl derivative thereof and pharmaceutical composition containing same” (Zaidan Hojin Biseibutsu Kagaku Kenkyu Kai, priority 1982, dated 1984)

Experiments:
[1] = tested on: Staphylococcus aureus FDA 209P; test: Antibacterial MIC, standard serial dilution; format: cell-based; conditions: nutrient agar, 37° C., 17 hours, as free base
[2] = tested on: Staphylococcus aureus Smith; test: Antibacterial MIC, standard serial dilution; format: cell-based; conditions: nutrient agar, 37° C., 17 hours, as free base
[3] = tested on: Staphylococcus aureus Ap01; test: Antibacterial MIC, standard serial dilution; format: cell-based; conditions: nutrient agar, 37° C., 17 hours, as free base
[4] = tested on: Staphylococcus epidermidis 109; test: Antibacterial MIC, standard serial dilution; format: cell-based; conditions: nutrient agar, 37° C., 17 hours, as free base
[5] = tested on: Micrococcus flavus FDA 16; test: Antibacterial MIC, standard serial dilution; format: cell-based; conditions: nutrient agar, 37° C., 17 hours, as free base
[6] = tested on: Sarcina lutea PCI 1001; test: Antibacterial MIC, standard serial dilution; format: cell-based; conditions: nutrient agar, 37° C., 17 hours, as free base
[7] = tested on: Bacillus anthracis; format: cell-based; conditions: nutrient agar, 37° C., 17 hours, as free base
[8] = tested on: Bacillus subtilis PCI 219; test: Antibacterial MIC, standard serial dilution; format: cell-based; conditions: nutrient agar, 37° C., 17 hours, as free base
[9] = tested on: Bacillus subtilis NRRL B-558; test: Antibacterial MIC, standard serial dilution; format: cell-based; conditions: nutrient agar, 37° C., 17 hours, as free base
[10] = tested on: Bacillus cereus ATCC 10702; test: Antibacterial MIC, standard serial dilution; format: cell-based; conditions: nutrient agar, 37° C., 17 hours, as free base
[11] = tested on: Corynebacterium bovis 1810; test: Antibacterial MIC, standard serial dilution; format: cell-based; conditions: nutrient agar, 37° C., 17 hours, as free base
[12] = tested on: Mycobacterium smegmatis ATCC 607; test: Antibacterial MIC, standard serial dilution; format: cell-based; conditions: nutrient agar, 37° C., 17 hours, as free base
[13] = tested on: Escherichia coli NIHJ; test: Antibacterial MIC, standard serial dilution; format: cell-based; conditions: nutrient agar, 37° C., 17 hours, as free base
[14] = tested on: Escherichia coli K-12; test: Antibacterial MIC, standard serial dilution; format: cell-based; conditions: nutrient agar, 37° C., 17 hours, as free base
[15] = tested on: Escherichia coli K-12 R5; test: Antibacterial MIC, standard serial dilution; format: cell-based; conditions: nutrient agar, 37° C., 17 hours, as free base
[16] = tested on: Escherichia coli K-12 R388; test: Antibacterial MIC, standard serial dilution; format: cell-based; conditions: nutrient agar, 37° C., 17 hours, as free base
[17] = tested on: Escherichia coli K-12 J5R11-2; test: Antibacterial MIC, standard serial dilution; format: cell-based; conditions: nutrient agar, 37° C., 17 hours, as free base
[18] = tested on: Escherichia coli K-12 ML1629; test: Antibacterial MIC, standard serial dilution; format: cell-based; conditions: nutrient agar, 37° C., 17 hours, as free base
[19] = tested on: Escherichia coli K-12 ML1630; test: Antibacterial MIC, standard serial dilution; format: cell-based; conditions: nutrient agar, 37° C., 17 hours, as free base
[20] = tested on: Escherichia coli K-12 ML1410; test: Antibacterial MIC, standard serial dilution; format: cell-based; conditions: nutrient agar, 37° C., 17 hours, as free base
[21] = tested on: Escherichia coli K-12 ML1410 R81; test: Antibacterial MIC, standard serial dilution; format: cell-based; conditions: nutrient agar, 37° C., 17 hours, as free base
[22] = tested on: Escherichia coli K-12 LA290 R55; test: Antibacterial MIC, standard serial dilution; format: cell-based; conditions: nutrient agar, 37° C., 17 hours, as free base
[23] = tested on: Escherichia coli K-12 LA290 R56; test: Antibacterial MIC, standard serial dilution; format: cell-based; conditions: nutrient agar, 37° C., 17 hours, as free base
[24] = tested on: Escherichia coli K-12 LA290 R64; test: Antibacterial MIC, standard serial dilution; format: cell-based; conditions: nutrient agar, 37° C., 17 hours, as free base
[25] = tested on: Escherichia coli W677; test: Antibacterial MIC, standard serial dilution; format: cell-based; conditions: nutrient agar, 37° C., 17 hours, as free base
[26] = tested on: Escherichia coli JR66/W677; test: Antibacterial MIC, standard serial dilution; format: cell-based; conditions: nutrient agar, 37° C., 17 hours, as free base
[27] = tested on: Escherichia coli K-12 C600 R135; test: Antibacterial MIC, standard serial dilution; format: cell-based; conditions: nutrient agar, 37° C., 17 hours, as free base
[28] = tested on: Escherichia coli JR225; test: Antibacterial MIC, standard serial dilution; format: cell-based; conditions: nutrient agar, 37° C., 17 hours, as free base
[29] = tested on: Klebsiella pneumoniae PCI602; test: Antibacterial MIC, standard serial dilution; format: cell-based; conditions: nutrient agar, 37° C., 17 hours, as free base
[30] = tested on: Klebsiella pneumoniae 22#3038; test: Antibacterial MIC, standard serial dilution; format: cell-based; conditions: nutrient agar, 37° C., 17 hours, as free base
[31] = tested on: Shigella dysenteriae JS11910; test: Antibacterial MIC, standard serial dilution; format: cell-based; conditions: nutrient agar, 37° C., 17 hours, as free base
[32] = tested on: Salmonella typhi T-63; test: Antibacterial MIC, standard serial dilution; format: cell-based; conditions: nutrient agar, 37° C., 17 hours, as free base
[33] = tested on: Salmonella enteritidis 1891; test: Antibacterial MIC, standard serial dilution; format: cell-based; conditions: nutrient agar, 37° C., 17 hours, as free base
[34] = tested on: Proteus vulgaris 0X19; test: Antibacterial MIC, standard serial dilution; format: cell-based; conditions: nutrient agar, 37° C., 17 hours, as free base
[35] = tested on: Proteus rettgeri GN311; test: Antibacterial MIC, standard serial dilution; format: cell-based; conditions: nutrient agar, 37° C., 17 hours, as free base
[36] = tested on: Proteus rettgeri GN466; test: Antibacterial MIC, standard serial dilution; format: cell-based; conditions: nutrient agar, 37° C., 17 hours, as free base
[37] = tested on: Serratia marcescens; test: Antibacterial MIC, standard serial dilution; format: cell-based; conditions: nutrient agar, 37° C., 17 hours, as free base
[38] = tested on: Serratia sp. SOU; test: Antibacterial MIC, standard serial dilution; format: cell-based; conditions: nutrient agar, 37° C., 17 hours, as free base
[39] = tested on: Serratia sp. 4; test: Antibacterial MIC, standard serial dilution; format: cell-based; conditions: nutrient agar, 37° C., 17 hours, as free base
[40] = tested on: Providencia sp. Pv16; test: Antibacterial MIC, standard serial dilution; format: cell-based; conditions: nutrient agar, 37° C., 17 hours, as free base
[41] = tested on: Providencia sp. 2991; test: Antibacterial MIC, standard serial dilution; format: cell-based; conditions: nutrient agar, 37° C., 17 hours, as free base
[42] = tested on: Pseudomonas aeruginosa A3; test: Antibacterial MIC, standard serial dilution; format: cell-based; conditions: nutrient agar, 37° C., 17 hours, as free base
[43] = tested on: Pseudomonas aeruginosa No. 12; test: Antibacterial MIC, standard serial dilution; format: cell-based; conditions: nutrient agar, 37° C., 17 hours, as free base
[44] = tested on: Pseudomonas aeruginosa H9; test: Antibacterial MIC, standard serial dilution; format: cell-based; conditions: nutrient agar, 37° C., 17 hours, as free base
[45] = tested on: Pseudomonas aeruginosa H11; test: Antibacterial MIC, standard serial dilution; format: cell-based; conditions: nutrient agar, 37° C., 17 hours, as free base
[46] = tested on: Pseudomonas aeruginosa TI-13; test: Antibacterial MIC, standard serial dilution; format: cell-based; conditions: nutrient agar, 37° C., 17 hours, as free base
[47] = tested on: Pseudomonas aeruginosa GN315; test: Antibacterial MIC, standard serial dilution; format: cell-based; conditions: nutrient agar, 37° C., 17 hours, as free base
[48] = tested on: Pseudomonas aeruginosa 99; test: Antibacterial MIC, standard serial dilution; format: cell-based; conditions: nutrient agar, 37° C., 17 hours, as free base
[49] = tested on: Pseudomonas aeruginosa B-13; test: Antibacterial MIC, standard serial dilution; format: cell-based; conditions: nutrient agar, 37° C., 17 hours, as free base
[50] = tested on: Pseudomonas aeruginosa 21-75; test: Antibacterial MIC, standard serial dilution; format: cell-based; conditions: nutrient agar, 37° C., 17 hours, as free base
[51] = tested on: Pseudomonas aeruginosa PST1; test: Antibacterial MIC, standard serial dilution; format: cell-based; conditions: nutrient agar, 37° C., 17 hours, as free base
[52] = tested on: Pseudomonas aeruginosa ROS 134/PU21; test: Antibacterial MIC, standard serial dilution; format: cell-based; conditions: nutrient agar, 37° C., 17 hours, as free base
[53] = tested on: Pseudomonas aeruginosa K-Ps 102; test: Antibacterial MIC, standard serial dilution; format: cell-based; conditions: nutrient agar, 37° C., 17 hours, as free base
[54] = tested on: Pseudomonas maltophilia GN 907; test: Antibacterial MIC, standard serial dilution; format: cell-based; conditions: nutrient agar, 37° C., 17 hours, as free base
[55] = tested on: mice; test: Acute toxicity, intravenous administration in mice; format: in vivo

CNCC1CCC(N)C(OC2C(N)CCC(N(C)C(=O)CNC=N)C2O)O1.O.O.O.O.O=S(=O)(O)O.O=S(=O)(O)O (centres unmarked) [DBF, 3-demethoxy-2"-N-formimidoylistamycin B]
MIC [1]: 0.39 µg/mL | MIC [2]: < 0.20 µg/mL | MIC [3]: 0.39 µg/mL | MIC [4]: 0.20 µg/mL | MIC [5]: 0.39 µg/mL | MIC [6]: 0.39 µg/mL | MIC [7]: 0.39 µg/mL | MIC [8]: 0.20 µg/mL | MIC [9]: < 0.20 µg/mL | MIC [10]: 1.56 µg/mL | MIC [11]: < 0.20 µg/mL | MIC [12]: 0.39 µg/mL | MIC [13]: 0.20 µg/mL | MIC [14]: 0.39 µg/mL | MIC [15]: 0.78 µg/mL | MIC [16]: 0.39 µg/mL | MIC [17]: 0.78 µg/mL | MIC [18]: 0.39 µg/mL | MIC [19]: 1.56 µg/mL | MIC [20]: 1.56 µg/mL | MIC [21]: 0.39 µg/mL | MIC [22]: 0.78 µg/mL | MIC [23]: 0.39 µg/mL | MIC [24]: 0.78 µg/mL | MIC [25]: 0.39 µg/mL | MIC [26]: 0.39 µg/mL | MIC [27]: 6.25 µg/mL | MIC [28]: 0.39 µg/mL | MIC [29]: 0.78 µg/mL | MIC [30]: 1.56 µg/mL | MIC [31]: 1.56 µg/mL | MIC [32]: 0.39 µg/mL | MIC [33]: 1.56 µg/mL | MIC [34]: < 0.20 µg/mL | MIC [35]: 0.39 µg/mL | MIC [36]: < 0.20 µg/mL | MIC [37]: 0.78 µg/mL | MIC [38]: 12.5 µg/mL | MIC [39]: 12.5 µg/mL | MIC [40]: 0.78 µg/mL | MIC [41]: 1.56 µg/mL | MIC [42]: 0.39 µg/mL | MIC [43]: 25 µg/mL | MIC [44]: 25 µg/mL | MIC [45]: 50 µg/mL | MIC [46]: 12.5 µg/mL | MIC [47]: 50 µg/mL | MIC [48]: > 100 µg/mL | MIC [49]: > 100 µg/mL | MIC [50]: 50 µg/mL | MIC [51]: 25 µg/mL | MIC [52]: 100 µg/mL | MIC [53]: 25 µg/mL | MIC [54]: > 100 µg/mL | acute toxicity ([55]; mice, intravenous, in words): low toxicity | tolerated dose (all treated mice) ([55]; mouse, in vivo, iv, 336 h): 100 mg/kg
